Data reported in patent US20240165096A1, “Anti Viral Therapy” (priority 2021, published 2024).
Where a name gives a salt, the structure may show the parent alone. Read-outs that look alike come from different tables or passages of the source.

Assays:
SARS-COV-2 [1] = conditions: 5 μM, Calu3 and Vero cells, MOI 0.1, CPE 3 days post infection
Calu3 cells = system: Calu3 cells
Experimental: (§1) Compounds were acoustically transferred into black 384 well optical bottom plates (Nunc-UK). Calu-3 and Vero cells were maintained as described for the infection assay and seeded in the assay-ready plates at a density of 3×10^3 cells/well for Vero cells, and 9×10^3 cells/well for Calu-3 cells. Plates were incubated for 72 h at 37° C. and 5% CO2. To assess cell toxicity, CellTox™ Green Cytotoxicity Assay (Promega-UK) was undertaken following the manufacturer's instructions. Plates were incubated for 15 min prior to recording fluorescence (480/520 nm) using a […] (CLARIOstar Plus; BMG LABTECH, UK).

Vero cells = system: Vero cells
Experimental: as §1

SARS-COV-2 [2] = assay: microbe, parasite or virus in culture; format: cell-based; conditions: for decrease in the amount of virus released from infected Calu3 cells: pretreatment 24 h, PHE strain MOI 0.1, plaque assay; for IC50: Severe acute respiratory syndrome coronavirus 2, Calu-3, drug alone, infected Calu3 cells, pre-treated 24 hours prior to infection, 6 concentrations
SARS-COV-2 NSP12 RNA = assay: RT-qPCR of viral NSP12 RNA in infected Calu3 cells; format: cell-based
SARS-COV-2 [3] = format: cell-based
SARS-COV-2 [4] = assay: microbe, parasite or virus in culture; conditions: Severe acute respiratory syndrome coronavirus 2, Calu-3, in Homo sapiens, read-out: protection from infection of SARS-COV-2 (percent inhibition of CPE)

CN1CCC(=C2c3ccccc3C=Cc3ccccc32)CC1 [Cyproheptadine]
antiviral effects in the screens (SARS-COV-2 [1]): did not show any antiviral effects

CN1CCC(=C2c3ccccc3CCc3cccnc32)CC1 [Azatadine]
cytotoxicity on Calu3 cells (Calu3 cells): not cytotoxic
cytotoxicity on Vero cells (Vero cells): not cytotoxic
decrease in the amount of virus released from infected Calu3 cells (SARS-COV-2 [2]; 5 μM): ~100 fold
decrease in the amount of virus released from infected Calu3 cells (SARS-COV-2 [2]; 25 μM): ~5000 fold
IC50 (SARS-COV-2 [2]): ~4900 nM
levels of mature infectious viral particles released from infected cells (SARS-COV-2 [2]; both concentrations (5 and 25 μM), plaque assay): substantially reduced
reduction of viral NSP12 RNA levels (SARS-COV-2 NSP12 RNA; 5 μM, infected Calu3 cells): ~50%
levels of viral NSP12 RNA (SARS-COV-2 NSP12 RNA; both concentrations (5 and 25 μM), RT-qPCR): substantially reduced
reduction of virus growth kinetics (SARS-COV-2 [3]): 10^2 PFU/mL
SARS-COV-2 titres following treatment (SARS-COV-2 [3]; donor #311, 25 μM): no difference
IFNλ release and/or activity (expression) (IFNλ): enhanced the release and/or activity of IFNλ
SARS-COV-2-mediated cytotoxicity (IFNλ): robustly inhibited
rank among interferon-enhancing drugs (IFNλ): top 1%
IFNλ release and/or activity (expression) (IFNλ; listed as Azatadine maleate): increase IFN-λ expression
inhibition at 5 µM (SARS-COV-2 [4]): ≥ 90%

O=C(O)COCCN1CCN([C@H](c2ccccc2)c2ccc(Cl)cc2)CC1 [Levocetirizine Dihydrochloride]
IFNλ release and/or activity (expression) (IFNλ): enhanced IFNλ release and/or activity
SARS-COV-2-mediated cytotoxicity (IFNλ): failed to inhibit cytotoxicity

CCC(CC)COC(=O)[C@H](C)N[P@](=O)(OC[C@H]1O[C@@](C#N)(c2ccc3c(N)ncnn23)[C@H](O)[C@@H]1O)Oc1ccccc1 [Remdesivir]
decrease in the amount of virus released from infected Calu3 cells (SARS-COV-2 [2]; 1 μM): ~5000 fold
IC50 (SARS-COV-2 [2]): ~190 nM
reduction of virus growth kinetics (SARS-COV-2 [3]): 10^3 PFU/mL
reduction in viral titres relative to the DMSO control (SARS-COV-2 [3]; donor #311, 1 μM): 1.47 log10
